Results reported in ChEMBL document CHEMBL1150960, “Isolation, structure determination, and biological activity of dolastatin 12 and lyngbyastatin 1 from Lyngbya majuscula/Schizothrix calcicola cyanobacterial assemblages” (J Nat Prod, 1998).
In brackets after ≈: the same amount, converted by molar mass. Activity calls are given as the source filed them. The calls are words filed in the database; no cut-off is given here. *1 amine or outer side, *2 acyl side, *3 side chain or, on linkers, in order; H or OH if unused. Where a SMILES comes first, the peptide text is derived from it. [ ]: non-standard residue; d: D form. X2 = CC[C@H](C)[C@H](OC(=O)[C@@H](C)[C@@H](CC)N[*:1])C(=O)[*:2]; X1 = C[C@H](N[*:1])C(=O)C(C)(C)C(=O)[*:2]; NMeY = CN[C@@H](Cc1ccc(O)cc1)C(=O)O; NMeF = CN[C@@H](Cc1ccccc1)C(=O)O; NMeI = CC[C@H](C)[C@H](NC)C(=O)O; NMeL = CN[C@@H](CC(C)C)C(=O)O; NMeV = CN[C@H](C(=O)O)C(C)C; NMeA = CN[C@@H](C)C(=O)O

What was measured:
[1] = test system: Mus musculus; assay: Toxicity in mouse Colon 38 cells xenografted BDF mouse assessed as body weight loss at nadir at 10.3 mg/kg, iv administered in QD 3-11 schedule; type: organism-based, MC-38; design: dose 10.3 mg/kg, route intravenous; conditions: in vivo
[2] = Cytotoxicity against CFU-GM cells assessed as zone units at 2 ug/disk by Corbett soft agar disk diffusion assay; type: functional
[3] = test system: A10; assay: Effect on morphology in rat A10 cells assessed as microtubule loss at 0.01 to 2 ug/ml after 24 hrs by […]; type: functional, cell-based
[4] = Cytotoxicity against human H116 cells assessed as zone units at 2 ug/disk by Corbett soft agar disk diffusion assay; type: functional
[5] = Antitumor activity against mouse mammary 16/C cells xenografted C3H mouse at 6.4 mg/kg, iv administered in QD 1-8 schedule; type: functional
[6] = test system: MC-38; assay: Antitumor activity against mouse Colon 38 cells xenografted BDF mouse at 7.5 mg/kg, iv administered in QD 3-11 schedule; type: functional
[7] = test system: A10; assay: Effect on morphology in rat A10 cells assessed as formation of binuclear cells at 0.01 to 2 ug/ml; type: functional, cell-based
[8] = test system: MC-38; assay: Cytotoxicity against mouse Colon 38 cells assessed as zone units at 2 ug/disk by Corbett soft agar disk diffusion assay; type: functional
[9] = test system: KB; assay: Cytotoxicity against human KB cells; type: functional
[10] = test system: Mus musculus; assay: Toxicity in mouse mammary 16/C cells xenografted C3H mouse assessed as body weight loss at nadir at 6.4 mg/kg, iv administered in QD 1-8 schedule; type: organism-based; design: dose 6.4 mg/kg, route intravenous; conditions: in vivo
[11] = test system: Mus musculus; assay: Toxicity in mouse mammary 16/C cells xenografted C3H mouse assessed as mortality at 6.4 mg/kg, iv administered in QD 1-8 schedule; type: organism-based; design: dose 6.4 mg/kg, route intravenous; conditions: in vivo
[12] = test system: LoVo; assay: Cytotoxicity against human LoVo cells; type: functional
[13] = test system: Mus musculus; assay: Toxicity in mouse mammary 16/C cells xenografted C3H mouse assessed as body weight loss at nadir at 3.2 mg/kg, iv administered in d 1,2 schedule; type: organism-based; design: dose 3.2 mg/kg, route intravenous; conditions: in vivo
[14] = Cytotoxicity against mouse mammary 17/Adr cells assessed as zone units at 2 ug/disk by Corbett soft agar disk diffusion assay; type: functional
[15] = test system: Mus musculus; assay: Necrosis in iv dosed mouse assessed as inflamed, bloody, upper GI tract with pancreatic damage and hemorrhage in lungs; type: organism-based, Gastrointestinal tract; conditions: in vivo
[16] = test system: MC-38; assay: Antitumor activity against mouse Colon 38 cells xenografted BDF mouse at 10.3 mg/kg, iv administered in QD 3-11 schedule; type: functional
[17] = test system: A10; assay: Induction of apoptosis in rat A10 cells assessed as apoptotic nuclei at 2 ug/ml; type: functional, cell-based
[18] = test system: Mus musculus; assay: Toxicity in mouse Colon 38 cells xenografted BDF mouse assessed as body weight loss at nadir at 7.5 mg/kg, iv administered in QD 3-11 schedule; type: organism-based, MC-38; design: dose 7.5 mg/kg, route intravenous; conditions: in vivo
[19] = test system: Mus musculus; assay: Toxicity in mouse mammary 16/C cells xenografted C3H mouse assessed as mortality at 3.2 mg/kg, iv administered in d 1,2 schedule; type: organism-based; design: dose 3.2 mg/kg, route intravenous; conditions: in vivo
[20] = Antitumor activity against mouse mammary 16/C cells xenografted C3H mouse at 3.2 mg/kg, iv administered in d 1,2 schedule; type: functional
[21] = test system: A10; assay: Inhibition of cytokinesis in rat A10 cells at 0.01 to 2 ug/ml; type: functional, cell-based
[22] = test system: L1210; assay: Cytotoxicity against mouse L1210 cells assessed as zone units at 2 ug/disk by Corbett soft agar disk diffusion assay; type: functional
[23] = Cytotoxicity against CFU-GM cells assessed as zone units at 12 ug/disk by Corbett soft agar disk diffusion assay; type: functional
[24] = Cytotoxicity against human H116 cells assessed as zone units at 12 ug/disk by Corbett soft agar disk diffusion assay; type: functional
[25] = test system: L1210; assay: Cytotoxicity against mouse L1210 cells assessed as zone units at 12 ug/disk by Corbett soft agar disk diffusion assay; type: functional
[26] = test system: MC-38; assay: Cytotoxicity against mouse Colon 38 cells assessed as zone units at 12 ug/disk by Corbett soft agar disk diffusion assay; type: functional
[27] = test system: Mus musculus; assay: Toxicity in mouse mammary 16/C cells xenografted C3H mouse assessed as body weight loss at nadir at 4.8 mg/kg, iv administered in d 1,2 schedule; type: organism-based; design: dose 4.8 mg/kg, route intravenous; conditions: in vivo
[28] = test system: A10; assay: Effect on morphology in rat A10 cells assessed as microtubule loss at 0.2 ug/ml after 24 hrs by […]; type: functional, cell-based
[29] = test system: Mus musculus; assay: Toxicity in mouse Colon 38 cells xenografted BDF mouse assessed as body weight loss at nadir at 15 mg/kg, iv administered in d 3,4,7-10 schedule; type: organism-based, MC-38; design: dose 15 mg/kg, route intravenous; conditions: in vivo
[30] = test system: A10; assay: Effect on morphology in rat A10 cells assessed as microtubule loss at 2 ug/ml after 24 hrs by […]; type: functional, cell-based
[31] = test system: A10; assay: Effect on morphology in rat A10 cells assessed as formation of binuclear cells; type: functional, cell-based
[32] = test system: Mus musculus; assay: Antitumor activity against mouse mammary 16/C cells xenografted C3H mouse at 4.8 mg/kg, iv administered in d 1,2 schedule; type: functional, organism-based; design: dose 4.8 mg/kg
[33] = test system: Mus musculus; assay: Toxicity in mouse Colon 38 cells xenografted BDF mouse assessed as body weight loss at nadir at 13 mg/kg, iv administered in QD 3-11 schedule; type: organism-based, MC-38; design: dose 13 mg/kg, route intravenous; conditions: in vivo
[34] = test system: Mus musculus; assay: Toxicity in mouse mammary 16/C cells xenografted C3H mouse assessed as mortality at 4.8 mg/kg, iv administered in d 1,2 schedule; type: organism-based; design: dose 4.8 mg/kg, route intravenous; conditions: in vivo
[35] = test system: A10; assay: Effect on morphology in rat A10 cells assessed as loss of cellular microfilament network at 2 ug/ml after 24 hrs by rhodamine-phalloidin staining; type: functional, cell-based
[36] = test system: MC-38; assay: Antitumor activity against mouse Colon 38 cells xenografted BDF mouse at 13 mg/kg, iv administered in QD 3-11 schedule; type: functional
[37] = test system: MC-38; assay: Antitumor activity against mouse Colon 38 cells xenografted BDF mouse at 15 mg/kg, iv administered in d 3,4,7-10 schedule; type: functional, organism-based; design: dose 15 mg/kg
[38] = test system: A10; assay: Inhibition of cytokinesis in rat A10 cells; type: functional, cell-based
[39] = test system: A10; assay: Effect on morphology in rat A10 cells assessed as loss of cellular microfilament network at 0.2 ug/ml after 24 hrs by rhodamine-phalloidin staining; type: functional, cell-based
[40] = test system: Mus musculus; assay: Toxicity in mouse mammary 16/C cells xenografted C3H mouse assessed as mortality at 11.7 mg/kg, iv administered in QD 1-9 schedule; type: organism-based; design: dose 11.7 mg/kg, route intravenous; conditions: in vivo
[41] = test system: Mus musculus; assay: Toxicity in mouse Colon 38 cells xenografted BDF mouse assessed as mortality at 13 mg/kg, iv administered in QD 3-11 schedule; type: organism-based, MC-38; design: dose 13 mg/kg, route intravenous; conditions: in vivo
[42] = Antitumor activity against mouse mammary 16/C cells xenografted C3H mouse at 11.7 mg/kg, iv administered in QD 1-9 schedule; type: functional
[43] = test system: Mus musculus; assay: Toxicity in mouse mammary 16/C cells xenografted C3H mouse assessed as body weight loss at nadir at 11.7 mg/kg, iv administered in QD 1-9 schedule; type: organism-based; design: dose 11.7 mg/kg, route intravenous; conditions: in vivo
[44] = test system: A10; assay: Induction of apoptosis in rat A10 cells assessed as fragmented cell nuclei at 0.2 ug/ml; type: functional, cell-based

CC[C@H](C)[C@@H]1OC(=O)[C@@H](C)[C@@H](CC)NC(=O)[C@H](C)N(C)C(=O)C(C)(C)C(=O)[C@H](C)NC(=O)[C@H](Cc2ccccc2)N(C)C(=O)[C@H](C(C)C)N(C)C(=O)CNC(=O)[C@H](CC(C)C)N(C)C(=O)CNC1=O [DOLASTATIN 12] (cyclo(G[NMeL]G[NMeV][NMeF][X1][NMeA][X2]))
Activity [1]: -15%
Activity [2]: 500 Zone units
Activity [3]: inactive
Activity [4]: 480 Zone units
T/C [5]: 86%
T/C [6]: 92%
Activity [7]: Active
Activity [8]: 630 Zone units
MIC [9]: < 0.05 µg/mL
Activity [10]: -3%
Activity [11]: Non-toxic
MIC [12]: 0.08 µg/mL (≈ 0.0825 µM)
Activity [13]: -13%
Activity [14]: 270 Zone units
Activity [15]: Toxic
T/C [16]: 41%
Activity [17]: Active
Activity [18]: -8%
Activity [19]: Toxic
T/C [20]: 68%
Activity [21]: Active
Activity [22]: 420 Zone units

CC[C@H](C)[C@@H]1OC(=O)[C@@H](C)[C@@H](CC)NC(=O)[C@H](C)NC(=O)C(C)(C)C(=O)[C@H](C)NC(=O)[C@H](Cc2ccc(OC)cc2)N(C)C(=O)[C@H](C(C)C)N(C)C(=O)CNC(=O)[C@H]([C@@H](C)CC)N(C)C(=O)CNC1=O [MAJUSCULAMIDE] (cyclo(A[X2]G[NMeI]G[NMeV][NMeY](Me)[X1]))
Activity [23]: 450 Zone units
Activity [24]: 710 Zone units
Activity [25]: 500 Zone units
Activity [26]: 730 Zone units

CC[C@H](C)[C@@H]1OC(=O)[C@@H](C)[C@@H](CC)NC(=O)[C@H](C)N(C)C(=O)C(C)(C)C(=O)[C@H](C)NC(=O)[C@H](Cc2ccc(OC)cc2)N(C)C(=O)[C@H](C(C)C)N(C)C(=O)CNC(=O)[C@H](CC(C)C)N(C)C(=O)CNC1=O [epilyngbyastatin 1] (cyclo(G[NMeL]G[NMeV][NMeY](Me)[X1][NMeA][X2]))
Activity [27]: Toxic
Activity [2]: 570 Zone units
Activity [28]: inactive
Activity [29]: -8%
Activity [30]: inactive
Activity [31]: inactive
Activity [32]: Toxic
Activity [4]: 580 Zone units
Activity [33]: -3%
Activity [34]: Toxic
Activity [35]: Active
Activity [8]: 670 Zone units
T/C [36]: 93%
MIC [9]: 0.1 µg/mL (≈ 0.1 µM)
Activity [37]: Toxic
MIC [12]: 0.5 µg/mL (≈ 0.5 µM)
Activity [14]: 650 Zone units
Activity [15]: Toxic
Activity [38]: inactive
Activity [39]: Active
Activity [17]: Active
Activity [40]: Non-toxic
Activity [41]: Non-toxic
T/C [42]: 61%
Activity [43]: -4%
Activity [44]: inactive
Activity [22]: 450 Zone units
